This is an account of results in paper PMC7170299, “Design, synthesis, molecular modelling and biological evaluation of novel 3-(2-naphthyl)-1-phenyl-1H-pyrazole derivatives as potent antioxidants and 15-Lipoxygenase inhibitors” (Journal of Enzyme Inhibition and Medicinal Chemistry, 2020).

Broadly, the melting point is the temperature, or range, at which the solid turns liquid.

Data set [1] relates to lipid peroxidation (MDA) in liver. The data set can be described thus: In vivo lipid peroxide level (TBARS/MDA) in liver homogenate. Conditions: rat liver; 100 mg/kg orally for 3 days; mean ± SEM, n = 6. Also on record: species or system male Wistar albino rats. The procedure:
(§1) The complete progress of the experiment was conducted using male Wistar albino rats (200–250 g), delivered by the Institutional Breeding House, Egypt, reared and maintained in the animal house of the institution. The animals had free access to food and water ad libitum and maintained in a controlled environment under standard conditions of temperature and humidity with an alternating 12 h light and dark cycle for about a week for acclimatization. The protocol of the study was approved by the Animal Ethics Committee of the Faculty of Pharmacy, Helwan University (ethical code number: 05A2019; date: October 2019). The study was conducted in accordance with the EC, directive 86/609/EEC for animal experiments.
(§2) Rats are weighed at the beginning and at the end of experiment. Fifty-four male albino rats (n=6) were divided into nine different groups. Group I served as a control group and treated with the same volume vehicle only. Group II treated with 100 mg/kg of Ascorbic acid as standard antioxidant drug. Groups (III–IX) orally administered 100 mg/kg of compounds 3a, 4e, 5b, 5c, 6a, 6c, 6e, respectively, for 3 days. The animals were sacrificed by cervical dislocation 24 h after the last dose. Sacrificing is carried out at the same time of the day, to avoid the circadian variation in the level of tissue GSH[53]. Each liver was excised, weighed, rinsed in ice-cold normal saline and frozen for not more than 72 h await analysis of endogenous antioxidant status (GSH levels and CAT activity) and lipid peroxide concentrations. For performing biochemical assays, a 10% liver homogenate in 10 mM phosphate buffer was prepared using tissue homogeniser (Glas-Col®, Cat no.099C K6424, TERRE HAUTE, USA).
Lipid peroxidation level in the liver homogenates was determined as thiobarbituric acid reactive substances (TBARS) by measuring malondialdehyde ‘MDA’ level according to Mihara and Uchiyama[56]. Briefly, 0.5 mL supernatant of tissue homogenate was mixed with 0.6% thiobarbituric acid (TBA) and 1% orthophosphoric acid solution, and heated in a boiling water bath for 45 min. The pink-coloured chromogen formed by the reaction of TBA with MDA was extracted by n-butanol and measured at 535 nm. The results were expressed as nmol/g tissue.

The nature of data set [2]: NO scavenging assay (sodium nitroprusside / Griess reagent). The following applies: mean ± SEM of three experiments; 90 min, 546 nm.
The subject of data set [3] is glutathione (GSH) in liver. The data set can be described thus: In vivo reduced glutathione (GSH) level in liver homogenate. Details: species or system male Wistar albino rats. The following applies: rat liver, 100 mg/kg orally for 3 days; for GSH: mean ± SEM, n = 6. The procedure: as §1, §2
Levels of glutathione (GSH) in liver homogenates were assayed by the deproteinization of tissue homogenate. Then […] supernatant was mixed with di-potassium hydrogen phosphate buffer (pH 8) and 0.4% 5,5′-dithiobis-2-nitrobenzoic acid (Ellman’s reagent). The yellow-coloured substance formed was measured at 412 nm. The results were expressed as GSH mg/g tissue.

Data set [4] is described as follows: DPPH radical scavenging assay. Conditions: mean ± SEM of three experiments; 30 min, 517 nm. Background: Loss of DPPH colour is used to gauge radical scavenging.
Data set [5] has as its system Catalase (CAT) activity in liver. Description: In vivo catalase (CAT) activity in liver homogenate. Also on record: species or system male Wistar albino rats. Conditions: rat liver, 100 mg/kg orally for 3 days; for CAT: mean ± SEM, n = 6. The protocol:
as §1, §2
Catalase activity in 10% liver homogenates was determined spectrophotometrically according to Sinha AK[54]. The decrease in absorbance at 240 nm due to H2O2 decomposition was measured and the results were expressed in U/mg tissue.

In turn, `c1ccc(C2=NNC(c3cn(-c4ccccc4)nc3-c3ccc4ccccc4c3)C2)cc1` (stereo not drawn) [Compound 3a, 3′-Naphthalen-2-yl-5,1′-diphenyl-3,4-dihydro-2H,1’H-[3,4′]bipyrazole] showed a melting point of 172 to 173 °C. The TBARS in data set [1] is reported as 0.350 ± 0.05 nmol/g tissue. Also, the “NO IC50” value in data set [2] was 27.65 ± 1.53 mg/L. For the same compound, the GSH in data set [3] is on record as 7.00 ± 0.27 mg/g tissue. In data set [4], the “DPPH IC50” value was determined as 13.99 ± 0.78 mg/L. In data set [5], the CAT was 36.21 ± 3.49 U/mg tissue.
Consider `Clc1ccc(C2=NN(c3ccccc3)C(c3cn(-c4ccccc4)nc3-c3ccc4ccccc4c3)C2)cc1Cl` (stereo not drawn) [Compound 4e, 5-(3,4-Dichlorophenyl)-3′-naphthalen-2-yl-2,1′-diphenyl-3,4-dihydro-2H,1’H-[3,4′]-bipyrazole], for which the melting point lay in the range of 172 to 173 °C. The TBARS in data set [1] is given as 0.402 ± 0.04 nmol/g tissue. In data set [2], the “NO IC50” value was 57.01 ± 1.29 mg/L. The compound further gave a GSH in data set [3] of 7.05 ± 0.56 mg/g tissue. The “DPPH IC50” value in data set [4] was found to be 19.56 ± 1.06 mg/L. The same compound returned a CAT in data set [5] of 43.48 ± 4.51 U/mg tissue.
Compound `COc1ccc(C2=NOC(c3cn(-c4ccccc4)nc3-c3ccc4ccccc4c3)C2)cc1` (stereo not drawn) [Compound 5b, 3-(4-Methoxyphenyl)-5-(3-naphthalen-2-yl-1-phenyl-1H-pyrazol-4-yl)-4,5-dihydro isoxazole] registered a melting point of 197 to 198 °C. The TBARS in data set [1] worked out at 0.330 ± 0.02 nmol/g tissue. The “NO IC50” value in data set [2] was determined as 75.53 ± 1.43 mg/L. For the same compound, in data set [3], the “Increase in GSH compared to control group” value (from here on “Increase in GSH”) is reported as “about 52%” and the GSH came to 10.71 ± 0.86 mg/g tissue. In addition, the “DPPH IC50” value in data set [4] turned out to be 46.62 ± 1.63 mg/L. For the same compound, in data set [5], the “Increase of CAT enzyme level compared to control group” value (“Increase of CAT enzyme level” below) is “about 101%” and the CAT is given as 48.19 ± 1.24 U/mg tissue.
As to `Cc1ccc(C2=NOC(c3cn(-c4ccccc4)nc3-c3ccc4ccccc4c3)C2)cc1` (stereo not drawn) [Compound 5c, 5-(3-Naphthalen-2-yl-1-phenyl-1H-pyrazol-4-yl)-3-p-tolyl-4,5-dihydroisoxazole], the melting point is 181 to 182 °C. Further, the TBARS in data set [1] was determined as 0.346 ± 0.01 nmol/g tissue. Also, in data set [2], the “NO IC50” value came out at 38.99 ± 1.31 mg/L. In data set [3], the “Increase in GSH” value is given as around 55% and the GSH is recorded as 10.92 ± 0.96 mg/g tissue. The “DPPH IC50” value in data set [4] stood at 47.27 ± 1.13 mg/L. Moreover, in data set [5], the “Increase of CAT enzyme level” value is around 89% and the CAT is listed as 45.42 ± 4.30 U/mg tissue.
The compound `NC(=S)N1N=C(c2ccccc2)CC1c1cn(-c2ccccc2)nc1-c1ccc2ccccc2c1` (stereo not drawn) [Compound 6a, 3′-Naphthalen-2-yl-5,1′-diphenyl-3,4-dihydro-1’H-[3,4′]bipyrazolyl-2-carbothioic acid amide] had a melting point of 198 to 199 °C. Besides, the TBARS in data set [1] was found to be 0.348 ± 0.03 nmol/g tissue. Besides, the “NO IC50” value in data set [2] is 36.37 ± 0.75 mg/L. The compound also displayed a GSH in data set [3] of 7.07 ± 0.35 mg/g tissue. Moreover, the “DPPH IC50” value in data set [4] came to 20.47 ± 1.43 mg/L. The compound also displayed a CAT in data set [5] of 27.97 ± 3.46 U/mg tissue.
The compound `Cc1ccc(C2=NN(C(N)=S)C(c3cn(-c4ccccc4)nc3-c3ccc4ccccc4c3)C2)cc1` (stereo not drawn) [Compound 6c, 3′-Naphthalen-2-yl-1′-phenyl-5-p-tolyl-3,4-dihydro-1’H-[3,4′]bipyrazolyl-2-carbo thioic acid amide] came in with a melting point of 184 to 185 °C. In data set [1], this compound came in with a TBARS of 0.428 ± 0.02 nmol/g tissue. The “NO IC50” value in data set [2] is 23.79 ± 0.83 mg/L. For the same compound, in data set [3], the GSH is 9.01 ± 0.72 mg/g tissue. Moreover, the “DPPH IC50” value in data set [4] was 18.98 ± 1.73 mg/L. Also, in data set [5], the CAT is given as 44.38 ± 2.81 U/mg tissue.
Compound `NC(=S)N1N=C(c2ccc(Cl)c(Cl)c2)CC1c1cn(-c2ccccc2)nc1-c1ccc2ccccc2c1` (stereo not drawn) [Compound 6e] showed a melting point of 180 to 181 °C. Further, the TBARS in data set [1] turned out to be 0.344 ± 0.05 nmol/g tissue. The “NO IC50” value in data set [2] stood at 71.39 ± 1.25 mg/L. In data set [3], the “Increase in GSH” value is around 51% and the GSH is 10.65 ± 0.97 mg/g tissue. Also, the “DPPH IC50” value in data set [4] worked out at 9.66 ± 0.34 mg/L. Also, in data set [5], the “Increase of CAT enzyme level” value is around 141% and the CAT is 57.84 ± 3.50 U/mg tissue.
